# Experiments:
# rice calli (Nipponbare) = experiment: Rice stable callus transformation efficiency; assay type: cell-based; details: co-cultivation and recovery media
# Procedure: • 1. […] Check for any off-type seeds and discard these. • 2. Surface sterilize seeds in a 50 ml sterile tube with 70% ethanol for 1 to 2 min with shaking (ethanol treatment step is optional). • 3. Remove ethanol. • 4. Add 50% (v/v) CLOROX® bleach (2.4% Na hypochlorite) or 40% (v/v) ULTRA CLOROX® (˜3.2% Na hypochlorite) and one drop of TWEEN™-20 detergent, shake for 30-40 min on a shaker at 100-200 rpm. • 5. Remove CLOROX® solution and rinse with sterile water at least three times, until all sign of TWEEN™-20 detergent (soap bubbles) is gone. • 6. Seeds are ready to plate on sterile medium. • 7. Check for bacterial and fungal contaminations at 3 and 5 days later, respectively.
# • 1. Soak sterilized seeds in sterile water for 1-2 d until fully imbibed (optional step) • 2. Plate pre-soaked or sterilized mature seeds onto rice callus induction medium (MS-CIM) at 12 seeds per plate. Culture in dark at 28° C. for 6 d prior to inoculation or for 4 weeks (wks) for production of embryogenic cultures. • 3. At 4 wks, selectively excise high quality target material and transfer to MS-CIM at 25 pieces per plate. Culture in dark for 8 d at 28° C. before inoculation.
# • 1. If possible, choose bacteria from the area of the plate where there are many individual single colonies of bacteria growing for inoculation. Transfer ˜7 inoculation loops full of Agrobacterium culture to a 50 ml sterile plastic tube containing 20 ml liquid MS media with acetosyringone (As) added to 200 μM (add 1 μl As stock at 40 mg/ml per ml of suspension). Vortex to completely dissolve bacteria in liquid and bring volume to 50 ml. • 2. Measure the Agrobacterium suspension OD at 660 nm. Dilute the culture to an OD660 of 0.2-0.3 (higher concentrations can offer higher transformation frequencies but can cause damage/browning in some cultivars). Induce the bacteria with acetosyringone for at least 30 min. • 3. Inoculate cultured rice seeds or rice embryogenic culture responses by immersing target material in the bacterial suspension for 30 min. • 4. Try to make sure that all target pieces are completely immersed in the bacterial solution and shake regularly to ensure that this continues to be the case. • 5.
# Transfer the inoculated seeds/cultures to multiple shoot-acetosyringone (MS-As) co-cultivation medium with sterile 85 mm filter paper. Each filter paper is wetted with 1 ml of MSInoc (see recipe below) liquid media with the concentrations of MT (in μM) listed below. Fifty (50) pieces per plate; incubate at 22° C. for 3 d. • A: Filter Paper • B: Filter Paper 2MT • C: Filter Paper 10MT • D: Filter Paper 100MT • E: Filter Paper 300MT • F: Filter Paper 1000MT
# • 1. After ˜36 hours of co-cultivation, transfer the co-cultivated seeds/responses to Agrobacterium inhibition medium MS-400Tim (see recipe below) (1 plate→1 plate). Culture in the dark at 28° C. for ˜7 days. • 2. Score the scorable marker control plate for gene delivery efficiency at 4 to 5 days after co-cultivation • A: Recovery Media • B: Recovery Media+2MT • C: Recovery Media+10MT • D: Recovery Media+100MT • E: Recovery Media+300MT • F: Recovery Media+1000MT
# • 1. Transfer calli to selection medium (17.5 g/l mannose/5 g/l sucrose). Culture in dark at ˜28° C. for 2 to 3 weeks, observing periodically for colony proliferation and contamination. • 2. Select mannose resistant embryogenic micro-colonies under microscope when proliferating colonies are big enough to grow independently, but not so big that they have begun to grow together. […]
# [1] = system: soybean immature seed explants; experiment: Soybean transformation frequency (TAQMAN positive plants); assay type: cell-based, Soybean (Glycine max, Jack); details: transgenic plants after rooting
# [2] = system: MicroTom tomato cotyledon explants; experiment: Frequency of independent stable transgenic events and escapes in Agrobacterium-mediated MicroTom transformation (GUS staining)
# Procedure: Sterilize MicroTom tomato seeds: (2.1 grams (g) of MicroTom tomato seeds, which equals approximately 900 seeds; supplied by Ball Horticultural Company, Chicago, Ill., USA. • add approximately 900 seeds to a sterile 250 milliliter (ml) flask • soak for 10 minutes (min) in the sterile 250 ml flask with ˜100 ml sterile double deionized (dd) water and then pour off the water. • add 100 ml of 70% ethanol to immerse the seeds for 1 min while stirring vigorously, pour off the ethanol, rinse the seeds 2 times with sterile dd water. • soak the seeds in 100 ml of 25% Chlorine bleach solution (chlorine bleach available under the registered trademark CLOROX®) with 3 drops of TWEEN™ 20 detergent for 10 min while stirring frequently, rinse the seeds three times with sterile dd water. • the seeds are germinated in MAGENTA™ box (available from bio-WORLD, Dublin, Ohio, United States of America) or culture box containing TGM medium (approximately 70 seeds/container), and the MAGENTA™ boxes are placed in a plastic box that is wiped down with 70% ethanol. The box cultures are placed in a dark incubator at 27° C. under the dark for 6 days (d). Seeds are distributed evenly and closely in the MAGENTA™ box, and pressed down on the media surface when placing the seeds on the germination medium.
# Construct Information: The construct used in transformation contains a CaMV 35S promoter driving GUS (with GUS intron) and Nos promoter driving NPTII in Bin 19 binary vector (Frisch et al., 1995, Plant Molecular Biology 27:405-409). Agrobacterium tumefaciens strain EHA101 is used for transformation.
# 150 microliters (μl) of Vector 1 glycerol stock from −80° C. are placed on a fresh Luria Broth (LB)/rifampicin 50 microgram (μg)/ml/kanamycin 50 μg/ml plate on Friday of the week before transformation experiment, grown at about 28° C. for 3-4 d and stored in the refrigerator (4° C.) for the rest of the week. One day before inoculation, between 1:00 to 2:00 pm, a loopful of the bacterium cells from the freshly streaked plate is inoculated into 2 ml of liquid LB/rifampicin 50 μg/ml/kanamycin 50 μg/ml in a 17×100 Falcon tube, and grown at 28 C.° with 230 revolutions per minute (rpm) shaking. The next morning between 8:00 to 9:00 am, 0.2 ml of the overnight bacterium culture is inoculated into 2 ml of plain LB+0.2 millimeter (mM) acetosyringone in a 17×100 mm Falcon tube, and grown at about 28° C. with 230 rpm for 4 h.
# Day 7 at about 2:00 pm. • 1) Cotyledon explants are isolated from seedlings 6 d after sowing seeds on TGM medium. • 2) About 25 cotyledon explants are prepared at a time by bathing them in a sterile petri dish plate containing 6 ml of Fillatti's suspension medium (FSM) liquid medium to prevent desiccation and trimming them at both ends using a #15 feather blade. Note: it is desirable to use the cotyledons that make a fairly tight “V” shape (two cotyledons that are at closed shape are acceptable to be used). • 3) Immediately after the trimming, the 25 cotyledon explants are gently placed on “feeder plates”—TCM medium. The “feeder plates” are made by overlaying 2 ml of tobacco suspension cells and a sterile WHATMAN™ filter (No. 1, Cat No. 1001090, VWR; Whatman Inc., Florham Park, N.J., United States of America) on the plates containing TCM medium. • 4) Cotyledon explants are gently poked with a sharp forceps and usually six pokes are made per explant. It is desirable that the sharp forceps gently touch the surface of explants and then make a slight movement on the touched surface in order to have a larger and shallower wounding surface that results in good transient expression. • 5) Right after poking, the cotyledons are inoculated with Agrobacterium by adding 3 ml of the Agrobacterium solution (OD600=0.1) suspended in FSM liquid medium to the top of cotyledons. The plates are incubated for 10 min at room temperature and the Agrobacterium solution is aspirated with a sterile pipette.
# [3] = system: MicroTom tomato cotyledons; experiment: Tissue extreme browning of MicroTom tomato cotyledon explants after Agrobacterium inoculation; assay type: cell-based, Solanum lycopersicum (tomato); details: for Extreme Browning Rate: 3 days after selection
# Source text: For tissue browning and transient expression data collection, 3 d after selection cotyledon explant data are collected for tissue browning under a dissecting microscope, and then for transient expression by GUS staining.
# [4] = resveratrol 50 μM, 6 weeks after selection
# [5] = resveratrol 100 μM, 6 weeks after selection
# [6] = resveratrol 200 μM, 6 weeks after selection
# [7] = N-t-butyl hydroxylamine 10 μM, 4 weeks after selection
# [8] = N-t-butyl hydroxylamine 50 μM, 4 weeks after selection
# [9] = N-t-butyl hydroxylamine 100 μM, 4 weeks after selection
# [10] = epicatechin 50 mg/l, 6 weeks after selection
# [11] = epicatechin 100 mg/l, 6 weeks after selection
# [12] = epicatechin 1000 mg/l, 6 weeks after selection
smiles,measurement,setting,value
"COc1ccc2[nH]cc(CCNC(C)=O)c2c1 [melatonin, N-Acetyl-5-methoxytryptamine]",% of stable callus sectors,"rice calli (Nipponbare); melatonin 2 μM in inoculation, transgenic callus after selection, 50 explants",148.0%
same,% of stable callus sectors,"rice calli (Nipponbare); melatonin 10 μM in inoculation, after selection",156.0%
same,% of stable callus sectors,"rice calli (Nipponbare); melatonin 100 μM in inoculation, after selection",140.0%
same,% of stable callus sectors,"rice calli (Nipponbare); melatonin 300 μM in inoculation, after selection",140.0%
same,% of stable callus sectors,"rice calli (Nipponbare); melatonin 1000 μM in inoculation, after selection",86.0%
same,Transformation frequency,"[1]; melatonin 1 μM in infection and co-cultivation media, glyphosate selection",7.6% +
same,Transformation frequency,[1]; melatonin 10 μM in infection and co-cultivation media,7.5% +
same,Transformation frequency,[1]; melatonin 100 μM in infection and co-cultivation media,4.5% +
same,Frequency of escapes,"[2]; melatonin 10 μM, 4 weeks after selection",1.7 ± 0.0%
same,Frequency of independent stable transgenic events,"[2]; melatonin 10 μM, 4 weeks after selection, Table 5",214.4% ± 6.2 A
same,Frequency of escapes,"[2]; melatonin 50 μM, 4 weeks after selection",0.0 ± 0.0%
same,Frequency of independent stable transgenic events,"[2]; melatonin 50 μM, 4 weeks after selection, Table 5",221.3% ± 47.7 A
same,Frequency of escapes,"[2]; melatonin 100 μM, 4 weeks after selection",0.0 ± 0.0%
same,Frequency of independent stable transgenic events,"[2]; melatonin 100 μM, 4 weeks after selection, Table 5",229.4% ± 55.7 A
same,Frequency of independent stable transgenic events,"[2]; melatonin 100 μM, 4 weeks after selection, Table 6 (second set)",213.3% ± 75.4 A
same,Frequency of independent stable transgenic events,"[2]; melatonin 500 μM, 4 weeks after selection, Table 6",121.7% ± 1.7 B
same,Frequency of independent stable transgenic events,"[2]; melatonin 1000 μM, 4 weeks after selection, Table 6",80.0% ± 14.1 B
same,"frequency of independent stable transgenic events, increased to","[2]; melatonin at 10, 50 and 100 μM, from 88% in negative control without melatonin",229%
same,Extreme Browning Rate,"[3]; 10 μM melatonin in selection stage media, percentage of pokes with browning area ≧70%, Table 3",21.5%
same,"tissue browning reduced, compared to the negative control",[3]; 10 μM melatonin in transformation media,3.0 fold
same,Extreme Browning Rate,"[3]; 50 μM melatonin in selection stage media, Table 3",11.8%
same,"tissue browning reduced, compared to the negative control",[3]; 50 μM melatonin in transformation media,5.5 fold
same,Extreme Browning Rate,"[3]; 100 μM melatonin in selection stage media, Table 3 (first set)",6.4%
same,"tissue browning reduced, compared to the negative control",[3]; 100 μM melatonin in transformation media,10.2 fold
same,Extreme Browning Rate,"[3]; 100 μM melatonin, Table 4 (second set)",22.2%
same,Extreme Browning Rate,"[3]; 500 μM melatonin, Table 4",21.0%
same,Extreme Browning Rate,"[3]; 1000 μM melatonin, Table 4",50.6%
"Oc1ccc(C=Cc2cc(O)cc(O)c2)cc1 [Resveratrol, resveratrol]",Frequency of escapes,[2]; [4],4.4 ± 7.7%
same,Frequency of independent stable transgenic events,[2]; [4],297.8 ± 24.6 B %
same,reduction of escapes compared with the negative control,[2]; resveratrol 100 μM,5 fold
same,Frequency of escapes,[2]; [5],1.1 ± 1.9%
same,Frequency of independent stable transgenic events,[2]; [5],356.7 ± 10.0 A %
same,Frequency of escapes,[2]; [6],1.1 ± 1.9%
same,Frequency of independent stable transgenic events,[2]; [6],227.8 ± 17.1 C %
CC(C)(C)NO [N-t-butyl hydroxylamine],reduction of frequency of escapes compared with the negative control,[2]; N-t-butyl hydroxylamine 10 μM,2.5 fold
same,Frequency of escapes,[2]; [7],4.4 ± 5.1%
same,Frequency of independent stable transgenic events,[2]; [7],245.6 ± 44.0 A %
same,Frequency of escapes,[2]; [8],6.7 ± 3.3%
same,Frequency of independent stable transgenic events,[2]; [8],222.2 ± 9.6 AB %
same,Frequency of escapes,[2]; [9],8.9 ± 1.9%
same,Frequency of independent stable transgenic events,[2]; [9],205.6 ± 10.2 AB %
"Oc1cc(O)c2c(c1)O[C@H](c1ccc(O)c(O)c1)[C@H](O)C2 [Epicatechin, epicatechin]",Frequency of escapes,[2]; [10],1.7 ± 2.4%
same,Frequency of independent stable transgenic events,[2]; [10],418.3 ± 25.9 B %
same,Frequency of escapes,[2]; [11],0.0 ± 0.0%
same,Frequency of independent stable transgenic events,[2]; [11],521.7 ± 16.5 A %
same,Frequency of escapes,"[2]; epicatechin 100 mg/l, 6 weeks after selection, listed as epicatechin",0%
same,toxicity to plant tissues (inferred from reduced stable transformation frequency),[2]; epicatechin 1000 mg/l,might be toxic to plant tissues at that concentration
same,Frequency of escapes,[2]; [12],1.7 ± 2.4%
same,Frequency of independent stable transgenic events,[2]; [12],51.7 ± 2.4 D %

# — patent US20100325754A1, “Compositions and methods for modulating oxidative burst in plant transformation” (Syngenta Participations AG, priority 2009, published 2010)
